Assay results: patent publication US12667572B2, “Tricyclic compounds useful in the treatment of cancer, autoimmune and inflammatory disorders” (SCHRÖDINGER, INC., priority 2021, dated 2026)

target: T1, full-length MALT1 protein His-MALT1(1-824) (Homo sapiens, UniProt Q9UDY8); assay: MALT1 protease assay, Assay 2 (1 nM MALT1, Ac-LRSR-AMC substrate); type: biochemical; conditions: 1 nM MALT1, 50 μM Ac-LRSR-AMC, 2 h pre-incubation, 8 hr incubation at RT
T1 construct: full-length MALT1 protein His-MALT1(1-824); His (N); made in house; host or cells: baculovirus-infected insect cells
T1 sequence (Q9UDY8 1-824): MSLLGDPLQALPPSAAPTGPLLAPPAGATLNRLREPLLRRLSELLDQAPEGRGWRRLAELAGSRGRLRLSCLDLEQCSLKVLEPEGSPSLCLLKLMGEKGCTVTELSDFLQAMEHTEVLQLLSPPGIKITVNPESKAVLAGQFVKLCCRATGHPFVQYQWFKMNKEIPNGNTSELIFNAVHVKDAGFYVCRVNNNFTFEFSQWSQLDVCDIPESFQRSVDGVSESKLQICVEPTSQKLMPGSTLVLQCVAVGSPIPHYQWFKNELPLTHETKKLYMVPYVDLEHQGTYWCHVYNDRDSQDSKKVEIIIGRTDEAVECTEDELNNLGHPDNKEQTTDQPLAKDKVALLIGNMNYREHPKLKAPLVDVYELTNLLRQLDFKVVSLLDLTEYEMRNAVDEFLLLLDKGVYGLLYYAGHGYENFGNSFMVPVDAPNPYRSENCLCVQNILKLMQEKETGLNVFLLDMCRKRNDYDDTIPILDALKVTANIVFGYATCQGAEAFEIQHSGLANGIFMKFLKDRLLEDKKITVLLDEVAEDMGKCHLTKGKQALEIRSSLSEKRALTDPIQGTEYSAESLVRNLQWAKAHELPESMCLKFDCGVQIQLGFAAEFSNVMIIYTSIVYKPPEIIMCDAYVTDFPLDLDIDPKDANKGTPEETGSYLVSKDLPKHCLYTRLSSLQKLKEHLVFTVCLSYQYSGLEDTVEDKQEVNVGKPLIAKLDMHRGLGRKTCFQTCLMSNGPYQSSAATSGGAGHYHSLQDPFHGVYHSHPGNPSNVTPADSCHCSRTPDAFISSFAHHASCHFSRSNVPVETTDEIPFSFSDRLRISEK
Method: MALT1 protease activity was assessed in an in vitro assay using a tetrapeptide as substrate and full-length MALT1 protein His-MALT1(1-824) purified from baculovirus-infected insect cells. The tetrapeptide substrate is Ac-LRSR-AMC (SM Biochemicals) with Km measured at around 100 μM.
The final assay buffer includes 1 nM (Assay 2) or 2 nM (Assay 1) of MALT1 full-length protein, 50 μM Ac-LRSR-AMC substrate, 50 mM Tris pH 7.5, 600 mM Sodium Citrate, 1 mM DTT, 1 mM EDTA, and 0.05% BSA in 384-well plate format using black microtiter square well plates (Optiplate 384-F, Perkin Elmer).
Test compounds were dissolved in 100% DMSO at stock of 10 mM, with final DMSO concentration 0.1%. Test compounds were pre-incubated with MALT1 protein for 2 h at room temperature. Substrate was added after the pre-incubation and fluorescence signal was measured using Envision at excitation 355 nm and emission 460 nm after 8 hr incubation at RT. Increase in the assay signal was linear over this period and proportional with increase in the enzyme content.
The fluorescence units were transformed to percentage of remaining activity by using the high control (HC, median of fluorescence signal from wells containing MALT1 protein, substrate, and DMSO) and low control (LC, median of fluorescence signal from wells with substrate only) with the formula below: […]
IC50 and Hill coefficients were obtained using Graph Pad Prism (Graph Pad software, Inc, USA) with non-linear regression analysis.

| IC50 [nM] | Structure (SMILES) |
| --- | --- |
| ≥ 1000 | CC1(C)C[C@@H](C(=O)Nc2cnc(OC3CC3)c(C#N)c2)c2cnc3cc(F)nn3c21 (single isomer, unassigned) [Example 80, N-(5-cyano-6-cyclopropoxypyridin-3-yl)-2-fluoro-8,8-dimethyl-7,8-dihydro-6H-cyclopenta[e]pyrazolo[1,5-a]pyrimidine-6-carboxamide] |
| 100 to 1000 | CC1(C)C[C@@H](C(=O)Nc2cnc(OC(F)F)c(C#N)c2)c2cnc3cc(F)nn3c21 (single isomer, unassigned) [Example 83, N-(5-cyano-6-(difluoromethoxy)pyridin-3-yl)-2-fluoro-8,8-dimethyl-7,8-dihydro-6H-cyclopenta[e]pyrazolo[1,5-a]pyrimidine-6-carboxamide] |
| ≥ 1000 | CC1(C)CC(C(=O)Nc2cnc(OC(F)F)c(C#N)n2)c2cnc3cc(F)nn3c21 (single isomer, unassigned) [Example 86, N-(6-cyano-5-(difluoromethoxy)pyrazin-2-yl)-2-fluoro-8,8-dimethyl-7,8-dihydro-6H-cyclopenta[e]pyrazolo[1,5-a]pyrimidine-6-carboxamide] |
| ≥ 1000 | CC1(C)CC(C(=O)Nc2cnc(OC(F)F)c(C#N)n2)c2cnc3cc(F)nn3c21 (single isomer, unassigned) [Example 87, N-(6-cyano-5-(difluoromethoxy)pyrazin-2-yl)-2-fluoro-8,8-dimethyl-7,8-dihydro-6H-cyclopenta[e]pyrazolo[1,5-a]pyrimidine-6-carboxamide] |
| 10 to 100 | CC1(C)CC(C(=O)Nc2cnc(-n3nccn3)c(C#N)c2)c2cnc3cc(F)nn3c21 (single isomer, unassigned) [Example 88, N-(5-cyano-6-(2H-1,2,3-triazol-2-yl)pyridin-3-yl)-2-fluoro-8,8-dimethyl-7,8-dihydro-6H-cyclopenta[e]pyrazolo[1,5-a]pyrimidine-6-carboxamide] |
| ≥ 1000 | CC1(C)C[C@@H](C(=O)Nc2cnc(OC(F)F)c(C#N)c2)c2cnc3c(F)c(F)nn3c21 (single isomer, unassigned) [Example 90, N-(5-cyano-6-(difluoromethoxy)pyridin-3-yl)-2,3-difluoro-8,8-dimethyl-7,8-dihydro-6H-cyclopenta[e]pyrazolo[1,5-a]pyrimidine-6-carboxamide] |
| 100 to 1000 | COc1cnc(C(F)(F)F)cc1NC(=O)C1CC(C)(C)c2c1cnc1cc(F)nn21 (single isomer, unassigned) [Example 92, 2-fluoro-N-(5-methoxy-2-(trifluoromethyl)pyridin-4-yl)-8,8-dimethyl-7,8-dihydro-6H-cyclopenta[e]pyrazolo[1,5-a]pyrimidine-6-carboxamide] |
| ≥ 1000 | COc1cnc(C(F)(F)F)cc1NC(=O)C1CC(C)(C)c2c1cnc1cc(F)nn21 (single isomer, unassigned) [Example 93, 2-fluoro-N-(5-methoxy-2-(trifluoromethyl)pyridin-4-yl)-8,8-dimethyl-7,8-dihydro-6H-cyclopenta[e]pyrazolo[1,5-a]pyrimidine-6-carboxamide] |
| 10 to 100 | O=C(Nc1cnc(-n2nccn2)c(Cl)c1)[C@@H]1CC2(CC2)c2c1cnc1cc(F)nn21 (single isomer, unassigned) [Example 94, N-(5-chloro-6-(2H-1,2,3-triazol-2-yl)pyridin-3-yl)-2-fluoro-6,7-dihydrospiro[cyclopenta[e]pyrazolo[1,5-a]pyrimidine-8,1′-cyclopropane]-6-carboxamide] |
| ≥ 1000 | CC1(C)C[C@@H](C(=O)Nc2ccnc(C(F)(F)F)c2)c2cnc3cc(C(F)F)nn3c21 (single isomer, unassigned) [Example 98, 2-(difluoromethyl)-8,8-dimethyl-N-(2-(trifluoromethyl)pyridin-4-yl)-7,8-dihydro-6H-cyclopenta[e]pyrazolo[1,5-a]pyrimidine-6-carboxamide] |
| 100 to 1000 | CC1(C)CC(C(=O)Nc2ccnc(C(F)(F)F)c2)c2cnc3cc(C(F)F)nn3c21 (single isomer, unassigned) [Example 99, 2-(difluoromethyl)-8,8-dimethyl-N-(2-(trifluoromethyl)pyridin-4-yl)-7,8-dihydro-6H-cyclopenta[e]pyrazolo[1,5-a]pyrimidine-6-carboxamide] |
| 100 to 1000 | CC1(C)CC(C(=O)Nc2cnc(-n3nccn3)c(Cl)c2)c2cnc3c(F)cnn3c21 (single isomer, unassigned) [Example 100, N-(5-chloro-6-(2H-1,2,3-triazol-2-yl)pyridin-3-yl)-3-fluoro-8,8-dimethyl-7,8-dihydro-6H-cyclopenta[e]pyrazolo[1,5-a]pyrimidine-6-carboxamide] |
| 100 to 1000 | N#Cc1cc(NC(=O)[C@@H]2CC3(CCC3)c3c2cnc2cc(F)nn32)cnc1OC(F)F (single isomer, unassigned) [Example 102, N-(5-cyano-6-(difluoromethoxy)pyridin-3-yl)-2′-fluoro-6′,7′-dihydrospiro[cyclobutane-1,8′-cyclopenta[e]pyrazolo[1,5-a]pyrimidine]-6′-carboxamide] |
| ≥ 1000 | CC(C)(O)c1ncc(NC(=O)[C@@H]2CC3(CCC3)c3c2cnc2cc(F)nn32)cc1Cl (single isomer, unassigned) [Example 104, N-(5-chloro-6-(2-hydroxypropan-2-yl)pyridin-3-yl)-2′-fluoro-6′,7′-dihydrospiro[cyclobutane-1,8′-cyclopenta[e]pyrazolo[1,5-a]pyrimidine]-6′-carboxamide] |
| ≥ 1000 | CC(C)(O)c1ncc(NC(=O)[C@H]2CC3(CCC3)c3c2cnc2cc(F)nn32)cc1Cl (single isomer, unassigned) [Example 105, N-(5-chloro-6-(2-hydroxypropan-2-yl)pyridin-3-yl)-2′-fluoro-6′,7′-dihydrospiro[cyclobutane-1,8′-cyclopenta[e]pyrazolo[1,5-a]pyrimidine]-6′-carboxamide] |
| 10 to 100 | CC1(C)C[C@@H](C(=O)Nc2cnc(-n3nccn3)c(C#N)c2)c2cnc3cc(Cl)nn3c21 (single isomer, unassigned) [Example 106, 2-chloro-N-(5-cyano-6-(2H-1,2,3-triazol-2-yl)pyridin-3-yl)-8,8-dimethyl-7,8-dihydro-6H-cyclopenta[e]pyrazolo[1,5-a]pyrimidine-6-carboxamide] |
| ≥ 1000 | O=C(Nc1cnc(-n2nccn2)c(Cl)c1)C1CC2(CCC2)c2c1cnc1cc(F)nn21 (single isomer, unassigned) [Example 109, N-(5-chloro-6-(2H-1,2,3-triazol-2-yl)pyridin-3-yl)-2′-fluoro-6′,7′-dihydrospiro[cyclobutane-1,8′-cyclopenta[e]pyrazolo[1,5-a]pyrimidine]-6′-carboxamide] |
| 10 to 100 | CC1(C)C[C@@H](C(=O)Nc2cnc(-n3ncc(C4COC4)n3)c(Cl)c2)c2cnc3cc(Cl)nn3c21 (single isomer, unassigned) [Example 110, 2-chloro-N-(5-chloro-6-(4-(oxetan-3-yl)-2H-1,2,3-triazol-2-yl)pyridin-3-yl)-8,8-dimethyl-7,8-dihydro-6H-cyclopenta[e]pyrazolo[1,5-a]pyrimidine-6-carboxamide] |
| ≥ 1000 | Cc1c(F)nn2c3c(cnc12)C(C(=O)Nc1cnc(-n2nccn2)c(Cl)c1)CC3(C)C (single isomer, unassigned) [Example 113, N-(5-chloro-6-(2H-1,2,3-triazol-2-yl)pyridin-3-yl)-2-fluoro-3,8,8-trimethyl-7,8-dihydro-6H-cyclopenta[e]pyrazolo[1,5-a]pyrimidine-6-carboxamide] |
| 100 to 1000 | Cc1c(F)nn2c3c(cnc12)C(C(=O)Nc1cnc(-n2nccn2)c(Cl)c1)CC3(C)C (single isomer, unassigned) [Example 114, N-(5-chloro-6-(2H-1,2,3-triazol-2-yl)pyridin-3-yl)-2-fluoro-3,8,8-trimethyl-7,8-dihydro-6H-cyclopenta[e]pyrazolo[1,5-a]pyrimidine-6-carboxamide] |
